Results on 1 compound are retold here after US11684614B2, “Formulations of hydroxypyridonate actinide/lanthanide decorporation agents” (priority 2017, dated 2023).

Data set [1] in a line: Non-GLP 7-day repeat dose studies in beagle dogs, pharmacokinetics incl. iv group (SRI No. B677-13, M835-11). The class given is in vivo. An excerpt: These two pilot studies included an iv administration group so that oral bioavailability could be calculated. The oral bioavailability was low at <3% and essentially the same in both studies regardless of whether the dogs received formulated capsules or 3,4,3-L1(1,2-HOPO) dissolved in PBS without sodium oleate. […] Volume of distribution was 0.3 L/kg, consistent with drug that is distributed primarily to the extracellular space.

For the next data set, the target named is CYP2D6 (Homo sapiens, UniProt P10635). Put plainly: CYP inhibition. The class given is in vitro ADME.
Sequence of CYP2D6 (P10635 whole entry): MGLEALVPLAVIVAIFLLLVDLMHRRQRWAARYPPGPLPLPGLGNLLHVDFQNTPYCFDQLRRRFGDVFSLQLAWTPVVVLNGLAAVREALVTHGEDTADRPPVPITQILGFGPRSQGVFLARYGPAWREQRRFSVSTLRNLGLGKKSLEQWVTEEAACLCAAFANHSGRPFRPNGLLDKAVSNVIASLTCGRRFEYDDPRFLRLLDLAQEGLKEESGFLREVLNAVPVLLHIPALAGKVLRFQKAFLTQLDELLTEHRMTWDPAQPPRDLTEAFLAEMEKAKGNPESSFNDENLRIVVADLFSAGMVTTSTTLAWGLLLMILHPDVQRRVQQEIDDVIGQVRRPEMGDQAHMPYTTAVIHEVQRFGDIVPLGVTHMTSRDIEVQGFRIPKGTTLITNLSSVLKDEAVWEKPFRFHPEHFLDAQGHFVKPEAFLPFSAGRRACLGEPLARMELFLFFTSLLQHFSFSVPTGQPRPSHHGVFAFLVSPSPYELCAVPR
The target in a further data set is CYP2C9 (Homo sapiens, UniProt P11712). Put plainly: CYP inhibition. The class given is in vitro ADME.
Sequence of CYP2C9 (P11712 whole entry): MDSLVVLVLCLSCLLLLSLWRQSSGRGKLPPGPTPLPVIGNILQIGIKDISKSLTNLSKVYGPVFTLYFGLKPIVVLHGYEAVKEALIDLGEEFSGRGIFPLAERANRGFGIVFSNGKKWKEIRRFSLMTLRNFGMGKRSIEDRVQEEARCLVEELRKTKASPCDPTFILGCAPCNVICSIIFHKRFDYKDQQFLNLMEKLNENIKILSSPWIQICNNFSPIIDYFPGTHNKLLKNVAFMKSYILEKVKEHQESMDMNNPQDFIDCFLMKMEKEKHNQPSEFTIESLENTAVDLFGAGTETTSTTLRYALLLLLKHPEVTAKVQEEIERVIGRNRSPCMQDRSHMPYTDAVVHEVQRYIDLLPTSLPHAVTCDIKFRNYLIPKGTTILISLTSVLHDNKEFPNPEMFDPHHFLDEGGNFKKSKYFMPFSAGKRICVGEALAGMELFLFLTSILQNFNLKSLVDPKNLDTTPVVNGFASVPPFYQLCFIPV
Data set [2] can be described thus: Plasma protein binding, human. The class given is in vitro ADME. Conditions: tested at 10 μg/ml. On the procedure: Plasma protein binding differed across species; it was greatest in dog (95%), intermediate in human (29%), and lowest in rat (5%) when tested at 10 μg/ml.

As a reminder, the t½ is the time in which the quantity being followed falls by half. A low value points to rapid decline.

For the compound `O=C(NCCCN(CCCCN(CCCNC(=O)c1cccc(=O)n1O)C(=O)c1cccc(=O)n1O)C(=O)c1cccc(=O)n1O)c1cccc(=O)n1O` [3,4,3-L1(1,2-HOPO)], the “accumulation in the plasma” value in data set [1] (after 7 days of dosing) is “did not accumulate in the plasma”. This compound also returned an oral bioavailability in data set [1] (formulated capsules or API in PBS without sodium oleate) of under 3%. In addition, in data set [1] (iv 37.6 mg/kg (50 μmol/kg)), the Volume of distribution was 0.3 L/kg, the “clearance (Cl)” value was determined as 9.9 mL/min/kg, the “mean AUCinf” value stood at 64000 ng·h/mL and the “observed peak plasma level” value was 115 ± 11 µg/mL. This compound displayed a t½ in data set [1] (iv 37.6 mg/kg (50 μmol/kg)) of 24 min. For the same compound, on CYP2D6, the “inhibition of CYP2D6 activity” value was “did not inhibit”. In addition, the “inhibition of CYP2C9 activity” value against CYP2C9 is reported as “did not inhibit”. The compound also registered a Plasma protein binding in data set [2] of 29%.
